± gives the expanded uncertainty stated by the source.
Key:
[1] = 100 kPa, Liquid; for viscosity: Falling or rolling sphere viscometry; for mass density: Vibrating tube method
[2] = xn = mol fraction of the nth substance listed; details: 100 kPa, Liquid; for viscosity: Falling or rolling sphere viscometry; for mass density: Vibrating tube method

Row | Structure (SMILES) | viscosity ([1]; 293.15 K) | mass density ([1]; 293.15 K) | viscosity ([1]; 298.15 K) | mass density ([1]; 298.15 K) | viscosity ([1]; 303.15 K) | mass density ([1]; 303.15 K) | viscosity ([1]; 308.15 K) | mass density ([1]; 308.15 K) | viscosity ([1]; 313.15 K) | mass density ([1]; 313.15 K) | viscosity ([1]; 318.15 K) | mass density ([1]; 318.15 K) | viscosity ([1]; 323.15 K) | mass density ([1]; 323.15 K) | viscosity ([1]; 328.15 K) | mass density ([1]; 328.15 K) | viscosity ([1]; 333.15 K) | mass density ([1]; 333.15 K) | viscosity ([2]; 293.15 K, x2 = 0) | mass density ([2]; 293.15 K, x2 = 0) | further results
1 | C1CCC(C2CCCCC2)CC1 [1,1'-bicyclohexyl] | 4.003 ± 0.085 mPa·s | 886.05 ± 0.89 kg/m3 | 3.53 ± 0.075 mPa·s | 882.44 ± 0.89 kg/m3 | 3.137 ± 0.067 mPa·s | 878.84 ± 0.88 kg/m3 | 2.81 ± 0.06 mPa·s | 875.25 ± 0.88 kg/m3 | 2.532 ± 0.054 mPa·s | 871.66 ± 0.88 kg/m3 | 2.296 ± 0.049 mPa·s | 868.08 ± 0.87 kg/m3 | 2.092 ± 0.045 mPa·s | 864.5 ± 0.87 kg/m3 | 1.915 ± 0.041 mPa·s | 860.93 ± 0.87 kg/m3 | 1.762 ± 0.038 mPa·s | 857.35 ± 0.86 kg/m3 |  |  | 
2 | CCCCO [butan-1-ol] | 2.941 ± 0.063 mPa·s | 809.5 ± 0.82 kg/m3 | 2.58 ± 0.055 mPa·s | 805.7 ± 0.81 kg/m3 | 2.274 ± 0.048 mPa·s | 801.87 ± 0.81 kg/m3 | 2.012 ± 0.043 mPa·s | 798 ± 0.81 kg/m3 | 1.787 ± 0.038 mPa·s | 794.1 ± 0.8 kg/m3 | 1.593 ± 0.034 mPa·s | 790.15 ± 0.8 kg/m3 | 1.426 ± 0.03 mPa·s | 786.16 ± 0.8 kg/m3 | 1.28 ± 0.027 mPa·s | 782.12 ± 0.79 kg/m3 | 1.152 ± 0.025 mPa·s | 778.01 ± 0.79 kg/m3 |  |  | 
3 | CCCCO [butan-1-ol] + C1CCC(C2CCCCC2)CC1 |  |  |  |  |  |  |  |  |  |  |  |  |  |  |  |  |  |  | 2.941 ± 0.063 mPa·s | 809.5 ± 0.82 kg/m3 | viscosity ([2]; 298.15 K, x2 = 0): 2.58 ± 0.055 mPa·s; mass density ([2]; 298.15 K, x2 = 0): 805.7 ± 0.81 kg/m3; viscosity ([2]; 303.15 K, x2 = 0): 2.274 ± 0.048 mPa·s; mass density ([2]; 303.15 K, x2 = 0): 801.87 ± 0.81 kg/m3; viscosity ([2]; 308.15 K, x2 = 0): 2.012 ± 0.043 mPa·s; mass density ([2]; 308.15 K, x2 = 0): 798 ± 0.81 kg/m3; viscosity ([2]; 313.15 K, x2 = 0): 1.787 ± 0.038 mPa·s; mass density ([2]; 313.15 K, x2 = 0): 794.1 ± 0.8 kg/m3; viscosity ([2]; 318.15 K, x2 = 0): 1.593 ± 0.034 mPa·s; mass density ([2]; 318.15 K, x2 = 0): 790.15 ± 0.8 kg/m3; viscosity ([2]; 323.15 K, x2 = 0): 1.426 ± 0.03 mPa·s; mass density ([2]; 323.15 K, x2 = 0): 786.16 ± 0.8 kg/m3; viscosity ([2]; 328.15 K, x2 = 0): 1.28 ± 0.027 mPa·s; mass density ([2]; 328.15 K, x2 = 0): 782.12 ± 0.79 kg/m3; viscosity ([2]; 333.15 K, x2 = 0): 1.152 ± 0.025 mPa·s; mass density ([2]; 333.15 K, x2 = 0): 778.01 ± 0.79 kg/m3
4 | CCCCO [butan-1-ol] + CCCCCCCCCCCC |  |  |  |  |  |  |  |  |  |  |  |  |  |  |  |  |  |  | 2.941 ± 0.063 mPa·s | 809.5 ± 0.82 kg/m3 | viscosity ([2]; 298.15 K, x2 = 0): 2.58 ± 0.055 mPa·s; mass density ([2]; 298.15 K, x2 = 0): 805.7 ± 0.81 kg/m3; viscosity ([2]; 303.15 K, x2 = 0): 2.274 ± 0.048 mPa·s; mass density ([2]; 303.15 K, x2 = 0): 801.87 ± 0.81 kg/m3; viscosity ([2]; 308.15 K, x2 = 0): 2.012 ± 0.043 mPa·s; mass density ([2]; 308.15 K, x2 = 0): 798 ± 0.81 kg/m3; viscosity ([2]; 313.15 K, x2 = 0): 1.787 ± 0.038 mPa·s; mass density ([2]; 313.15 K, x2 = 0): 794.1 ± 0.8 kg/m3; viscosity ([2]; 318.15 K, x2 = 0): 1.593 ± 0.034 mPa·s; mass density ([2]; 318.15 K, x2 = 0): 790.15 ± 0.8 kg/m3; viscosity ([2]; 323.15 K, x2 = 0): 1.426 ± 0.03 mPa·s; mass density ([2]; 323.15 K, x2 = 0): 786.16 ± 0.8 kg/m3; viscosity ([2]; 328.15 K, x2 = 0): 1.28 ± 0.027 mPa·s; mass density ([2]; 328.15 K, x2 = 0): 782.12 ± 0.79 kg/m3; viscosity ([2]; 333.15 K, x2 = 0): 1.152 ± 0.025 mPa·s; mass density ([2]; 333.15 K, x2 = 0): 778.01 ± 0.79 kg/m3
5 | CCCCCCCCCCCC [dodecane] | 1.491 ± 0.032 mPa·s | 748.83 ± 0.76 kg/m3 | 1.366 ± 0.029 mPa·s | 745.22 ± 0.76 kg/m3 | 1.257 ± 0.027 mPa·s | 741.59 ± 0.75 kg/m3 | 1.154 ± 0.025 mPa·s | 737.95 ± 0.75 kg/m3 | 1.076 ± 0.023 mPa·s | 734.31 ± 0.75 kg/m3 | 1.003 ± 0.021 mPa·s | 730.66 ± 0.74 kg/m3 | 0.936 ± 0.02 mPa·s | 727 ± 0.74 kg/m3 | 0.877 ± 0.019 mPa·s | 723.33 ± 0.74 kg/m3 | 0.823 ± 0.018 mPa·s | 719.65 ± 0.73 kg/m3 |  |  | 
6 | CCCCCCCCCCCC [dodecane] + C1CCC(C2CCCCC2)CC1 |  |  |  |  |  |  |  |  |  |  |  |  |  |  |  |  |  |  |  |  | viscosity ([2]; 293.15 K, x1 = 1): 1.491 ± 0.032 mPa·s; mass density ([2]; 293.15 K, x1 = 1): 748.83 ± 0.76 kg/m3; viscosity ([2]; 298.15 K, x1 = 1): 1.366 ± 0.029 mPa·s; mass density ([2]; 298.15 K, x1 = 1): 745.22 ± 0.76 kg/m3; viscosity ([2]; 303.15 K, x1 = 1): 1.257 ± 0.027 mPa·s; mass density ([2]; 303.15 K, x1 = 1): 741.59 ± 0.75 kg/m3; viscosity ([2]; 308.15 K, x1 = 1): 1.154 ± 0.025 mPa·s; mass density ([2]; 308.15 K, x1 = 1): 737.95 ± 0.75 kg/m3; viscosity ([2]; 313.15 K, x1 = 1): 1.076 ± 0.023 mPa·s; mass density ([2]; 313.15 K, x1 = 1): 734.31 ± 0.75 kg/m3; viscosity ([2]; 318.15 K, x1 = 1): 1.003 ± 0.021 mPa·s; mass density ([2]; 318.15 K, x1 = 1): 730.66 ± 0.74 kg/m3; viscosity ([2]; 323.15 K, x1 = 1): 0.936 ± 0.02 mPa·s; mass density ([2]; 323.15 K, x1 = 1): 727 ± 0.74 kg/m3; viscosity ([2]; 328.15 K, x1 = 1): 0.877 ± 0.019 mPa·s; mass density ([2]; 328.15 K, x1 = 1): 723.33 ± 0.74 kg/m3; viscosity ([2]; 333.15 K, x1 = 1): 0.823 ± 0.018 mPa·s; mass density ([2]; 333.15 K, x1 = 1): 719.65 ± 0.73 kg/m3

From the NIST ThermoML archive (doi:10.1021/acs.jced.8b00438)
